Source: the supplement of paper PMC10307832

The cell lines below were run with Cc1ccccc1C(C(=O)NC1CCCCC1)N(C(=O)Cn1ccnc1C)c1cccc(F)c1 [IDH-C35] + COc1cc2c(Oc3ccc(NC(=O)C4(C(=O)Nc5ccc(F)cc5)CC4)cc3F)ccnc2cc1OCCCN1CCOCC1 [Foretinib] (partner 0.25 µM) (assay: relative viability (nuclei count vs DMSO), 5 days (fraction); higher = more cells survive). Conditions: first compound 8 µM.
Method in brief: (§1)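 Dosing by pin tool came one day after lung cancer cell lines were seeded in 1536-well plates, using either one drug or a fixed anchor-drug dose plus five library-drug doses (not always all listed) in √10 steps. After 5 days, nuclei were counted on 4× images. Relative viability is treated-well nuclei count divided by vehicle-well nuclei count, and values are medians of duplicate plates.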

Cell Line	relative viability
NCI-H1437	1.23
NCI-H1755	0.933
NCI-H2023	0.839

These cell lines were tested with Cc1ccccc1C(C(=O)NC1CCCCC1)N(C(=O)Cn1ccnc1C)c1cccc(F)c1 [IDH-C35] + CC1(C)CCC(c2ccc(Cl)cc2)=C(CN2CCN(c3ccc(C(=O)NS(=O)(=O)c4ccc(N[C@H](CCN5CCOCC5)CSc5ccccc5)c(S(=O)(=O)C(F)(F)F)c4)cc3)CC2)C1 [Navitoclax] (partner 0.5 µM) in the same assay as above. Conditions: first compound 0.08 µM.
Method in brief: as §1

Cell Line	relative viability
NCI-H2405	0.926
HOP-62	1.07
LU99A	0.702
BEN	0.0634
HARA	1.08
HCC-78	0.86
NCI-H322M	1.34
LCLC-97TM1	0.4
NCI-H2009	1.22
A-427	0.975
NCI-H441	0.694
NCI-H1734	0.9
NCI-H460	1.26
NCI-H2347	0.766
SK-LU-1	0.788
NCI-H1395	1.14

Cell Line	relative viability
201T	1.18
NCI-H1915	0.772
HCC-827	0.975
LXF-289	0.968
NCI-H23	0.792
NCI-H647	1.26
CAL-12T	1.32
NCI-H1651	1.03
EPLC-272H	1.27
NCI-H2228	0.915
NCI-H1355	0.952
NCI-H3122	1.03
NCI-H1437	1.08
NCI-H1755	0.981
NCI-H2023	1.09

Same assay, conditions: first compound 0.253 µM

Cell Line	relative viability
NCI-H2405	0.981
HOP-62	0.939
LU99A	0.814
BEN	0.062
HARA	1.14
HCC-78	0.762
NCI-H322M	1.12
LCLC-97TM1	0.474
NCI-H2009	1.16
A-427	0.975
NCI-H1734	0.849
NCI-H460	1.19
NCI-H2347	0.765
SK-LU-1	0.682
NCI-H1395	1.05
201T	1.19
NCI-H1915	0.753
HCC-827	0.997
LXF-289	0.931
NCI-H23	0.828
NCI-H647	1.18
CAL-12T	1.19
NCI-H1651	1.01
EPLC-272H	1.13
NCI-H2228	1.18
NCI-H1355	0.928
NCI-H3122	0.997
NCI-H1437	1.07
NCI-H1755	1.01
NCI-H2023	1.01

Same assay, conditions: first compound 0.8 µM

Cell Line	relative viability
NCI-H2405	0.918
HOP-62	0.84
LU99A	0.871
BEN	0.0706
HARA	1.14
HCC-78	0.763
NCI-H322M	1.23
LCLC-97TM1	0.367
NCI-H2009	1.12
A-427	0.904
NCI-H441	0.568
NCI-H1734	0.827
NCI-H460	1.06
NCI-H2347	0.801
SK-LU-1	0.804
NCI-H1395	1.49

Cell Line	relative viability
201T	1.19
NCI-H1915	0.759
HCC-827	1.05
LXF-289	0.961
NCI-H23	0.883
NCI-H647	0.916
CAL-12T	1.06
NCI-H1651	0.972
EPLC-272H	1.13
NCI-H2228	1.29
NCI-H1355	0.934
NCI-H3122	0.96
NCI-H1437	1.08
NCI-H1755	0.973
NCI-H2023	0.979

Same assay, conditions: first compound 2.53 µM

Cell Line	relative viability
HOP-62	0.974
LU99A	0.925
BEN	0.0643
HARA	1.12
HCC-78	0.62
NCI-H322M	1.15
NCI-H2009	1.17
A-427	0.949
NCI-H441	0.582
NCI-H1734	0.796
NCI-H460	1.07
NCI-H2347	0.851
SK-LU-1	1.01
NCI-H1395	1.08
201T	1.17
NCI-H1915	0.729
HCC-827	0.949
LXF-289	0.896
NCI-H23	0.992
NCI-H647	1.04
CAL-12T	1.36
NCI-H1651	1.03
NCI-H2228	0.875
NCI-H1355	0.938
NCI-H3122	1.01
NCI-H1437	1.19
NCI-H1755	0.976
NCI-H2023	0.962

Same assay, conditions: first compound 8 µM

Cell Line	relative viability
NCI-H2405	0.76
HOP-62	0.891
LU99A	0.781
BEN	0.0666
HARA	1.14
HCC-78	0.656
NCI-H322M	1.2
LCLC-97TM1	0.35
NCI-H2009	1.16
A-427	0.952
NCI-H441	0.675
NCI-H1734	0.791
NCI-H460	1.21
NCI-H2347	0.742
SK-LU-1	0.652
NCI-H1395	1.16

Cell Line	relative viability
201T	1.19
NCI-H1915	0.767
HCC-827	1.03
LXF-289	0.987
NCI-H23	0.807
NCI-H647	1.12
CAL-12T	1.09
NCI-H1651	1.01
EPLC-272H	1.07
NCI-H2228	0.706
NCI-H1355	0.996
NCI-H3122	1.08
NCI-H1437	0.975
NCI-H1755	0.96
NCI-H2023	1.1
